Results taken from patent US20210045385A1, “PYRIDAZINONE-SUBSTITUTED KETOXIMES AS HERBICIDES” (FMC Corporation, priority 2018, published 2021).

How the values were obtained:
Format in all cases: in vivo
[1] = tested on: Italian ryegrass (Lolium mutiflorum); assay: Test C preemergence, visual plant response rating
Description: (§1) Seeds of plant species selected from barnyardgrass (Echinochloa crus-galli), kochia (Bassia scoparia), ragweed (common ragweed, Ambrosia artemisiifolia), Italian ryegrass (Lolium mutiflorum), foxtail, giant (giant foxtail, Setaria faberi), foxtail, green (green foxtail, Setaria viridis), and pigweed (Amaranthus retroflexus) were planted into a blend of loam soil and sand and treated preemergence with a directed soil spray using test chemicals formulated in anon-phytotoxic solvent mixture which included a surfactant.
(§2) At the same time, plants selected from these weed species and also wheat (Triticum aestivum), corn (Zea mays), blackgrass (Alopecurus myosuroides), and galium (catchweed bedstraw, Galium aparine) were planted in pots containing the same blend of loam soil and sand and treated with post emergence applications of test chemicals formulated in the same manner. Plants ranged in height from 2 to 10 cm and were in the one- to two-leaf stage for the postemergence treatment. Treated plants and untreated controls were maintained in a greenhouse for approximately 10 d, after which time all treated plants were compared to untreated controls and visually evaluated for injury. Plant response ratings, summarized in Table C, are based on a 0 to 100 scale where 0 is no effect and 100 is complete control. A dash (-)response means no test result.

[2] = tested on: barnyardgrass (Echinochloa crus-galli); assay: Test C preemergence, visual plant response rating
Description: as §1, §2

[3] = tested on: foxtail, giant (giant foxtail, Setaria faberi); assay: Test C preemergence, visual plant response rating
Description: as §1, §2

[4] = tested on: kochia (Bassia scoparia); assay: Test C preemergence, visual plant response rating
Description: as §1, §2

[5] = tested on: pigweed (Amaranthus retroflexus); assay: Test C preemergence, visual plant response rating
Description: as §1, §2

[6] = tested on: Italian ryegrass (Lolium mutiflorum); assay: Test C postemergence, visual plant response rating
Description: as §1, §2

[7] = tested on: barnyardgrass (Echinochloa crus-galli); assay: Test C postemergence, visual plant response rating
Description: as §1, §2

[8] = tested on: blackgrass (Alopecurus myosuroides); assay: Test C postemergence, visual plant response rating
Description: as §1, §2

[9] = tested on: corn (Zea mays); assay: Test C postemergence, visual plant response rating
Description: as §1, §2

[10] = tested on: foxtail, giant (giant foxtail, Setaria faberi); assay: Test C postemergence, visual plant response rating
Description: as §1, §2

[11] = tested on: galium (catchweed bedstraw, Galium aparine); assay: Test C postemergence, visual plant response rating
Description: as §1, §2

[12] = tested on: kochia (Bassia scoparia); assay: Test C postemergence, visual plant response rating
Description: as §1, §2

[13] = tested on: pigweed (Amaranthus retroflexus); assay: Test C postemergence, visual plant response rating
Description: as §1, §2

[14] = tested on: ragweed (common ragweed, Ambrosia artemisiifolia); assay: Test C postemergence, visual plant response rating
Description: as §1, §2

[15] = tested on: wheat (Triticum aestivum); assay: Test C postemergence, visual plant response rating
Description: as §1, §2

[16] = tested on: barnyardgrass (Echinochloa crus-galli); assay: Test D flooded paddy test, visual plant response rating; details: 250 g ai/ha, scale 0 to 100 (0 no effect, 100 complete control), 13 to 15 d
Protocol: (§3) Plant species in the flooded paddy test selected from rice (Oryza sativa), sedge umbrella (small-flower umbrella sedge, Cyperus difformis) duck salad (Heteranthera limosa), and barnyardgrass (Echinochloa crus-galli) were grown to the 2-leaf stage for testing. At time of treatment, test pots were flooded to 3 cm above the soil surface, treated by application of test compounds directly to the paddy water, and then maintained at that water depth for the duration of the test. Treated plants and controls were maintained in a greenhouse for 13 to 15 d, after which time all species were compared to controls and visually evaluated. Plant response ratings, summarized in Table D, are based on a scale of 0 to 100 where 0 is no effect and 100 is complete control. A dash (-) response means no test result.

[17] = tested on: duck salad (Heteranthera limosa); assay: as above; details: 250 g ai/ha, scale 0 to 100 (0 no effect, 100 complete control), 13 to 15 d
Protocol: as §3

[18] = tested on: rice (Oryza sativa); assay: as above; details: 250 g ai/ha, scale 0 to 100 (0 no effect, 100 complete control), 13 to 15 d
Protocol: as §3

[19] = tested on: sedge umbrella (small-flower umbrella sedge, Cyperus difformis); assay: as above; details: 250 g ai/ha, scale 0 to 100 (0 no effect, 100 complete control), 13 to 15 d
Protocol: as §3

[20] = Test C, 31 g ai/ha, 0 is no effect, 100 is complete control
[21] = Test C, postemergence, 125 g ai/ha

Row | SMILES | Ryegrass, Italian plant response rating (0 to 100 scale) ([1]; 125 g ai/ha) | Ryegrass, Italian plant response rating (0 to 100 scale) [1, 20] | Barnyardgrass plant response rating (0 to 100 scale) ([2]; 125 g ai/ha) | Barnyardgrass plant response rating (0 to 100 scale) [2, 20] | Foxtail, Giant plant response rating (0 to 100 scale) ([3]; 125 g ai/ha) | Foxtail, Giant plant response rating (0 to 100 scale) [3, 20] | Kochia plant response rating (0 to 100 scale) ([4]; 125 g ai/ha) | Kochia plant response rating (0 to 100 scale) [4, 20] | Pigweed plant response rating (0 to 100 scale) ([5]; 125 g ai/ha) | Pigweed plant response rating (0 to 100 scale) [5, 20] | Ryegrass, Italian plant response rating (0 to 100 scale) ([6]; Postemergence, 31 g ai/ha) | Ryegrass, Italian plant response rating (0 to 100 scale) [6, 21] | Barnyardgrass plant response rating (0 to 100 scale) ([7]; Postemergence, 31 g ai/ha) | Barnyardgrass plant response rating (0 to 100 scale) [7, 21] | Blackgrass plant response rating (0 to 100 scale) ([8]; Postemergence, 31 g ai/ha) | Blackgrass plant response rating (0 to 100 scale) [8, 21] | Corn plant response rating (0 to 100 scale) ([9]; Postemergence, 31 g ai/ha) | Corn plant response rating (0 to 100 scale) [9, 21] | Foxtail, Giant plant response rating (0 to 100 scale) ([10]; Postemergence, 31 g ai/ha) | Foxtail, Giant plant response rating (0 to 100 scale) [10, 21] | further results
1 | CCON=C(c1cc(Cl)cc(Br)c1)c1c(O)c(C)nn(C)c1=O [Compound 181] | 90 | 0 | 60 | 0 | 90 | 50 | 70 | 30 | 90 | 30 | 70 | 100 | 40 | 60 | 0 | 20 | 0 | 30 | 50 | 80 | Galium plant response rating (0 to 100 scale) ([11]; Postemergence, 31 g ai/ha): 100; Galium plant response rating (0 to 100 scale) [11, 21]: 100; Kochia plant response rating (0 to 100 scale) ([12]; Postemergence, 31 g ai/ha): 60; Kochia plant response rating (0 to 100 scale) [12, 21]: 80; Pigweed plant response rating (0 to 100 scale) ([13]; Postemergence, 31 g ai/ha): 40; Pigweed plant response rating (0 to 100 scale) [13, 21]: 90; Ragweed plant response rating (0 to 100 scale) ([14]; Postemergence, 31 g ai/ha): 100; Ragweed plant response rating (0 to 100 scale) [14, 21]: 100; Wheat plant response rating (0 to 100 scale) ([15]; Postemergence, 31 g ai/ha): 0; Wheat plant response rating (0 to 100 scale) [15, 21]: 50; Plant response rating, Barnyardgrass (Flood) [16]: 0; Plant response rating, Ducksalad (Flood) [17]: 0; Plant response rating, Rice (Flood) [18]: 0; Plant response rating, Sedge, Umbrella (Flood) [19]: 0
2 | Cc1nn(C)c(=O)c(C(=NOCC2CC2)c2cc(Cl)cc(Cl)c2Cl)c1O [Compound 182] | 100 | 30 | 90 | 0 | 100 | 70 | 0 | 0 | 70 | 0 | 70 | 100 | 50 | 60 | 10 | 10 | 0 | 30 | 70 | 90 | Galium plant response rating (0 to 100 scale) ([11]; Postemergence, 31 g ai/ha): 70; Galium plant response rating (0 to 100 scale) [11, 21]: 100; Kochia plant response rating (0 to 100 scale) ([12]; Postemergence, 31 g ai/ha): 10; Kochia plant response rating (0 to 100 scale) [12, 21]: 70; Pigweed plant response rating (0 to 100 scale) ([13]; Postemergence, 31 g ai/ha): 10; Pigweed plant response rating (0 to 100 scale) [13, 21]: 50; Ragweed plant response rating (0 to 100 scale) ([14]; Postemergence, 31 g ai/ha): 40; Ragweed plant response rating (0 to 100 scale) [14, 21]: 100; Wheat plant response rating (0 to 100 scale) ([15]; Postemergence, 31 g ai/ha): 0; Wheat plant response rating (0 to 100 scale) [15, 21]: 70; Plant response rating, Barnyardgrass (Flood) [16]: 0; Plant response rating, Ducksalad (Flood) [17]: 0; Plant response rating, Rice (Flood) [18]: 0; Plant response rating, Sedge, Umbrella (Flood) [19]: 0
